These results are taken from patent US12440492B2, “Pharmaceutical compositions comprising AKT protein kinase inhibitors” (Genentech, Inc., priority 2016, dated 2025).

Structures can show the parent of a compound that is named as a salt.

What all share (format): physicochemical
Data set [1] in a line: Solid state by X-ray powder diffraction. The conditions noted are these: * indicates absence of crystalline API; monohydrochloride. The text has this:
Bragg's law describes the diffraction of crystalline material with the equation “2d·sin(theta)=n·lambda”, wherein “d” denotes perpendicular distance (in Angstroms) between pairs of adjacent planes in a crystal (“d-spacing”), “theta” denotes the Bragg angle, “lambda” denotes the wavelength and “n” is an integer. When Bragg's law is fulfilled, the reflected beams are in phase and interfere constructively so that Bragg diffraction peaks are observed in the X-ray diffraction pattern. At angles of incidence other than the Bragg angle, reflected beams are out of phase and destructive interference or cancellation occurs. […] The XRPD pattern of an amorphous material is further characterized by one or more amorphous halos.
The term “XRPD” denotes the analytical method of X-Ray Powder Diffraction. The repeatability of the angular values is in the range of 2Theta±0.2°, more particularly in the range of 2Theta±0.1°. The term “approximately” given in combination with an angular value denotes the variance which is in the range of 2Theta±0.2°, particularly in the range of 2Theta±0.1°. The relative XRPD peak intensity is dependent upon many factors such as structure factor, temperature factor, crystallinity, polarization factor, multiplicity, and Lorentz factor. Relative intensities may vary considerably from one measurement to another due to preferred orientation effects. According to USP 941 (US Pharmacopoeia, 37th Edition, General Chapter 941), relative intensities between two samples of the same material may vary considerably due to “preferred orientation” effects. Anisotropic materials adopting preferred orientation will lead to anisotropic distribution of properties such as modulus, strength, ductility, toughness, electrical conductivity, thermal expansion, etc., as described e.g. in Kocks U. F. et al. (Texture and Anisotropy: Preferred Orientations in Polycrystals and Their Effect on Materials Properties, Cambridge University Press, 2000). In XRPD but also Raman spectroscopy, preferred orientations cause a change in the intensity distribution. Preferred orientation effects are particularly pronounced with crystalline APIs of relatively large particle size.

Data set [2] can be described thus: Particle size distribution (d10, d50, d90) by laser diffraction. The conditions noted are these: spray dried amorphous ipatasertib monohydrochloride powder. The text has this: FIG. 6 illustrates particle size distribution of the material of Example 6C (Batch HQ00003) spray dried with two-feed nozzle as obtained by laser diffraction A bimodal particle size distribution is obvious. FIG. 9 illustrates particle size distribution of spray dried material with rotary wheel nozzle, i.e. of the material of batch BS1506SA03 of Example 13 (Table 20) obtained using a Malvern Mastersizer 2000 equipped with Hydro 2000S wet sample dispersion unit (Malvern Instruments Ltd, Malvern/UK). A monomodal particle size distribution is obvious. The terms “d50 value” (sometimes also referred to as “d(0.5)-value”) and “mass-median diameter” (or MMD) can be used interchangeably and denote the average particle size by mass, i.e. the average equivalent diameter of a particle, which is defined as the diameter where 50% (w) of the particles of the ensemble have a larger equivalent spherical diameter, and the other 50% (w) have a smaller equivalent spherical diameter. In analogy, the term “d10-value” denotes the particle diameter wherein 10% (w) of the particles of the ensemble have a smaller equivalent spherical diameter. In analogy, the term “d90-value” denotes the particle diameter wherein 90% (w) of the particles of the ensemble have a smaller equivalent spherical diameter.

Data set [3] can be described thus: Bulk density, tapped density and Carr index. The conditions noted are these: spray dried amorphous ipatasertib monohydrochloride powder; monohydrochloride.

`CC(C)NC[C@@H](C(=O)N1CCN(c2ncnc3c2[C@H](C)C[C@H]3O)CC1)c1ccc(Cl)cc1` [Composition 130710450, ipatasertib monohydrochloride]: the “Solid state / Polymorphy (X-Ray, XRPD)” value in data set [1] is listed as “Amorphous*”. In addition, in data set [2], the “Particle size d10” value was determined as 14 μm, the “Particle size d50” value was determined as 40 μm and the “Particle size d90” value turned out to be 79 μm. In data set [3], this molecule showed a Bulk density of 0.42 gcm^−3 and a Tapped density of 0.60 gcm^−3.
For `CC(C)NC[C@@H](C(=O)N1CCN(c2ncnc3c2[C@H](C)C[C@H]3O)CC1)c1ccc(Cl)cc1` [Composition 130710451, ipatasertib monohydrochloride], the “Solid state / Polymorphy (X-Ray, XRPD)” value in data set [1] was “Amorphous*”. For the same molecule, in data set [2], the “Particle size d10” value is reported as 17 μm, the “Particle size d50” value is listed as 45 μm and the “Particle size d90” value is listed as 88 μm. In data set [3], the Bulk density stood at 0.48 gcm^−3 and the Tapped density worked out at 0.61 gcm^−3.
For the molecule `CC(C)NC[C@@H](C(=O)N1CCN(c2ncnc3c2[C@H](C)C[C@H]3O)CC1)c1ccc(Cl)cc1` [Composition 130710452, ipatasertib monohydrochloride], the “Solid state / Polymorphy (X-Ray, XRPD)” value in data set [1] was “Amorphous*”. Besides, in data set [2], the “Particle size d10” value is given as 8.4 μm, the “Particle size d50” value came out at 21 μm and the “Particle size d90” value is reported as 42 μm. In data set [3], this molecule returned a Bulk density of 0.32 gcm^−3 and a Tapped density of 0.47 gcm^−3.
Regarding `CC(C)NC[C@@H](C(=O)N1CCN(c2ncnc3c2[C@H](C)C[C@H]3O)CC1)c1ccc(Cl)cc1` [Composition 130810453, ipatasertib monohydrochloride], the “Solid state / Polymorphy (X-Ray, XRPD)” value in data set [1] is given as “Amorphous*”. In data set [2], the “Particle size d10” value is 6.6 μm, the “Particle size d50” value is reported as 20 μm and the “Particle size d90” value was 58 μm. Also, in data set [3], the Bulk density was determined as 0.30 gcm^−3 and the Tapped density came to 0.45 gcm^−3.
For the molecule `CC(C)NC[C@@H](C(=O)N1CCN(c2ncnc3c2[C@H](C)C[C@H]3O)CC1)c1ccc(Cl)cc1` [Composition 130810454, ipatasertib monohydrochloride], the “Solid state / Polymorphy (X-Ray, XRPD)” value in data set [1] is listed as “Amorphous*”. For the same molecule, in data set [2], the “Particle size d10” value was determined as 12 μm, the “Particle size d50” value turned out to be 36 μm and the “Particle size d90” value was 72 μm. Besides, in data set [3], the Bulk density was 0.47 gcm^−3 and the Tapped density amounted to 0.61 gcm^−3.
Regarding `CC(C)NC[C@@H](C(=O)N1CCN(c2ncnc3c2[C@H](C)C[C@H]3O)CC1)c1ccc(Cl)cc1` [Composition 140110401, ipatasertib monohydrochloride], the “Solid state / Polymorphy (X-Ray, XRPD)” value in data set [1] is “amorphous*”. In data set [2], the “Particle size d10” value was found to be 11.4 μm, the “Particle size d50” value is recorded as 31 μm and the “Particle size d90” value turned out to be 64 μm. In addition, in data set [3], the Bulk density is on record as 0.47 gcm^−3 and the Tapped density is listed as 0.61 gcm^−3.
Turning to `CC(C)NC[C@@H](C(=O)N1CCN(c2ncnc3c2[C@H](C)C[C@H]3O)CC1)c1ccc(Cl)cc1` [Composition 140110402, ipatasertib monohydrochloride], the “Solid state / Polymorphy (X-Ray, XRPD)” value in data set [1] was “amorphous*”. Further, in data set [2], the “Particle size d10” value is given as 7 μm, the “Particle size d50” value was determined as 20 μm and the “Particle size d90” value is given as 46 μm. Also, in data set [3], the Bulk density was determined as 0.45 gcm^−3 and the Tapped density turned out to be 0.60 gcm^−3.
For the molecule `CC(C)NC[C@@H](C(=O)N1CCN(c2ncnc3c2[C@H](C)C[C@H]3O)CC1)c1ccc(Cl)cc1` [Composition 140110403, ipatasertib monohydrochloride], in data set [1], the “Solid state / Polymorphy (X-Ray, XRPD)” value is “amorphous*”. In data set [2], the “Particle size d10” value was determined as 9.4 μm, the “Particle size d50” value amounted to 27 μm and the “Particle size d90” value was found to be 61 μm. Moreover, in data set [3], the Bulk density worked out at 0.37 gcm^−3 and the Tapped density is 0.52 gcm^−3.
On to `CC(C)NC[C@@H](C(=O)N1CCN(c2ncnc3c2[C@H](C)C[C@H]3O)CC1)c1ccc(Cl)cc1` [Composition 140110404, ipatasertib monohydrochloride], for which, in data set [1], the “Solid state / Polymorphy (X-Ray, XRPD)” value is on record as “amorphous*”. Further, in data set [2], the “Particle size d10” value is 12.5 μm, the “Particle size d50” value was determined as 47 μm and the “Particle size d90” value came to 108 μm. Further, in data set [3], the Bulk density was determined as 0.49 gcm^−3 and the Tapped density worked out at 0.63 gcm^−3.
Consider `CC(C)NC[C@@H](C(=O)N1CCN(c2ncnc3c2[C@H](C)C[C@H]3O)CC1)c1ccc(Cl)cc1` [Composition 140110405, ipatasertib monohydrochloride], for which, in data set [1], the “Solid state / Polymorphy (X-Ray, XRPD)” value was “amorphous*”. Also, in data set [2], the “Particle size d10” value is given as 9.3 μm, the “Particle size d50” value came to 26 μm and the “Particle size d90” value came out at 57 μm. In data set [3], this molecule gave a Bulk density of 0.28 gcm^−3 and a Tapped density of 0.40 gcm^−3.
Take `CC(C)NC[C@@H](C(=O)N1CCN(c2ncnc3c2[C@H](C)C[C@H]3O)CC1)c1ccc(Cl)cc1` [Composition 140110406, ipatasertib monohydrochloride]: the “Solid state / Polymorphy (X-Ray, XRPD)” value in data set [1] is given as “amorphous*”. Also, in data set [2], the “Particle size d10” value stood at 10.2 μm, the “Particle size d50” value is given as 26 μm and the “Particle size d90” value was determined as 53 μm. Besides, in data set [3], the Bulk density stood at 0.41 gcm^−3 and the Tapped density came out at 0.54 gcm^−3.
As for `CC(C)NC[C@@H](C(=O)N1CCN(c2ncnc3c2[C@H](C)C[C@H]3O)CC1)c1ccc(Cl)cc1` [Composition 140110407, ipatasertib monohydrochloride], in data set [1], the “Solid state / Polymorphy (X-Ray, XRPD)” value is “amorphous*”. For the same molecule, in data set [2], the “Particle size d10” value was determined as 7.1 μm, the “Particle size d50” value was 16 μm and the “Particle size d90” value was determined as 28 μm. Moreover, in data set [3], the Bulk density amounted to 0.29 gcm^−3 and the Tapped density worked out at 0.43 gcm^−3.
For `CC(C)NC[C@@H](C(=O)N1CCN(c2ncnc3c2[C@H](C)C[C@H]3O)CC1)c1ccc(Cl)cc1` [Composition 140110408, ipatasertib monohydrochloride], the “Solid state / Polymorphy (X-Ray, XRPD)” value in data set [1] is reported as “amorphous*”. In data set [2], the “Particle size d10” value stood at 9.3 μm, the “Particle size d50” value is recorded as 26 μm and the “Particle size d90” value turned out to be 58 μm. In data set [3], the Bulk density was 0.34 gcm^−3 and the Tapped density was 0.50 gcm^−3.
In the case of `CC(C)NC[C@@H](C(=O)N1CCN(c2ncnc3c2[C@H](C)C[C@H]3O)CC1)c1ccc(Cl)cc1` [Composition 140110409, ipatasertib monohydrochloride], the “Solid state / Polymorphy (X-Ray, XRPD)” value in data set [1] is “amorphous*”. Also, in data set [2], the “Particle size d10” value was determined as 11.3 μm, the “Particle size d50” value was 35 μm and the “Particle size d90” value was 79 μm. For the same molecule, in data set [3], the Bulk density worked out at 0.27 gcm^−3 and the Tapped density amounted to 0.39 gcm^−3.
With `CC(C)NC[C@@H](C(=O)N1CCN(c2ncnc3c2[C@H](C)C[C@H]3O)CC1)c1ccc(Cl)cc1` [Composition 140110410, ipatasertib monohydrochloride], the “Solid state / Polymorphy (X-Ray, XRPD)” value in data set [1] is “amorphous*”. Besides, in data set [2], the “Particle size d10” value is recorded as 8.1 μm, the “Particle size d50” value is 23 μm and the “Particle size d90” value is listed as 50 μm. In addition, in data set [3], the Bulk density was found to be 0.18 gcm^−3 and the Tapped density stood at 0.30 gcm^−3.
For `CC(C)NC[C@@H](C(=O)N1CCN(c2ncnc3c2[C@H](C)C[C@H]3O)CC1)c1ccc(Cl)cc1` [Composition 140110411, ipatasertib monohydrochloride], the “Solid state / Polymorphy (X-Ray, XRPD)” value in data set [1] was “amorphous*”. In data set [2], the “Particle size d10” value is recorded as 9.2 μm, the “Particle size d50” value stood at 27 μm and the “Particle size d90” value amounted to 58 μm. In data set [3], this molecule gave a Bulk density of 0.37 gcm^−3 and a Tapped density of 0.51 gcm^−3.
